Measured values: PMC9925730, “Controlled sequential in situ self-assembly and disassembly of a fluorogenic cisplatin prodrug for cancer theranostics” (Nature Communications, 2023)
Values joined by “and” are separate entries in the source; they are usually repeats but may differ in a detail not shown here. Equal values may be shown once. Read-outs that look alike come from different tables or passages of the source.

Tests used:
HEK-293T cells = experiment: Cytotoxicity, MTT assay; type: cell-based, human; parameters: key to cell viability, mean: % viability = OD / OD of untreated control
Procedure: (§1) HeLa cells were seeded on flat-bottomed 96-well plates (5000 cells per well) and incubated at 37 °C overnight. Varying concentrations of P-CyPt, Pt^IVNPs or CDDP (0, 1, 2, 5, 10, 20, 30, 50, 100, and 200 μM) in DMEM medium (100 μL) were added. Cells were either incubated for 48 h, or firstly incubated with these three compounds for 2 h, washed with PBS and then incubated with refreshed blank DMEM medium for another 48 h. Then, 3-(4,5)-dimethylthiahiazo (-z-y1)−3,5-di-phenytetrazoliumromide (MTT, 50 μL, 1 mg /mL in PBS) was added into each well. The cells were kept at 37 °C for 4 h, and the solution in each well was carefully removed, followed by addition of dimethyl sulfoxide (DMSO, 150 μL). The absorbance (OD) at 490 nm in each well was acquired on the microplate reader (Tcan). The absorbance of non-treated blank cells (OD control) was used as the control. The percentage of cell viability was calculated by dividing OD to the OD control. […]
(§2) Supplementary Table 4. The IC50 (μM) value of different Pt drugs toward HeLa, HepG2 and HEK-293T cells.a
(§3) Compounds Condition IC50 (μM) HeLa HepG2 HEK-293T […]
(§4) a The IC50 values were measured by the MTT assay. Values denote mean ± s.d. (n = 3 independent experiments). b Cells were incubated with varying concentrations of CDDP, P-CyPt or PtIVNPs for […]
(§5) c Cells were incubated with varying concentrations of CDDP, P-CyPt or PtIVNPs for 2 h, and the mediums were removed, washed with PBS. Blank culture mediums were added, and the cells were kept incubation for another 48 h.

HeLa cells = experiment: Cytotoxicity, MTT assay; type: cell-based, human; parameters: key to cell viability, mean: % viability = OD / OD of untreated control
Procedure: as §1, §2, §3, §4, §5

HepG2 cells = experiment: Cytotoxicity, MTT assay; type: cell-based, human; parameters: key to cell viability, mean: % viability = OD / OD of untreated control
Procedure: as §1, §2, §3, §4, §5

[1] = Body weight of mice with orthotopic HepG2/Luc liver tumors; type: in vivo; conditions: individual samples, in g (unit assumed)

In the case of `CC1(C)C(/C=C/C2=C3Oc4cc(OP(=O)(O)O)c(Cl)cc4C=C3CCC2)=[N+](CCCNC(=O)[C@@H](Cc2ccccc2)NC(=O)[C@@H](Cc2ccccc2)NC(=O)CCC(=O)[O][Pt]([NH2])([NH2])([OH])([Cl])[Cl])c2ccccc21` [P-CyPt], the IC50 (HEK-293T cells; HEK-293T, 2+48 h, individual samples, read-out: IC50-2+48h) is reported as > 200 µM, the IC50 (HEK-293T cells; HEK-293T, 2+48 h, mean of 3 samples, read-out: IC50-2+48h) is reported as > 200 µM and the IC50 (HEK-293T cells; HEK-293T, 48 h, individual samples, read-out: IC50-48h) is reported as 43.8 µM and 50.3 µM and 51.8 µM. For the same compound, the “cell viability, mean” value (HEK-293T cells; Supplementary Fig. 23 (c), concentration 1 μM) was 98.4753, the “cell viability, mean” value (HEK-293T cells; Supplementary Fig. 23 (c), concentration 2 μM) was 94.8818 and the “cell viability, mean” value (HEK-293T cells; Supplementary Fig. 23 (c), concentration 5 μM) was 91.0944. For the same compound, the “cell viability, mean” value (HEK-293T cells; Supplementary Fig. 23 (c), concentration 10 μM) was 84.8089, the “cell viability, mean” value (HEK-293T cells; Supplementary Fig. 23 (c), concentration 20 μM) was 73.4808 and the “cell viability, mean” value (HEK-293T cells; Supplementary Fig. 23 (c), concentration 30 μM) was 62.5624. The “cell viability, mean” value (HEK-293T cells; Supplementary Fig. 23 (c), concentration 50 μM) was 47.5251, the “cell viability, mean” value (HEK-293T cells; Supplementary Fig. 23 (c), concentration 100 μM) was 31.456 and the “cell viability, mean” value (HEK-293T cells; Supplementary Fig. 23 (c), concentration 200 μM) was 17.421. The “cell viability, mean” value (HEK-293T cells; Supplementary Fig. 24 (c), concentration 1 μM) was 97.0705, the “cell viability, mean” value (HEK-293T cells; Supplementary Fig. 24 (c), concentration 2 μM) was 99.2124 and the “cell viability, mean” value (HEK-293T cells; Supplementary Fig. 24 (c), concentration 5 μM) was 98.6059. The “cell viability, mean” value (HEK-293T cells; Supplementary Fig. 24 (c), concentration 10 μM) was 96.2404, the “cell viability, mean” value (HEK-293T cells; Supplementary Fig. 24 (c), concentration 20 μM) was 97.2347 and the “cell viability, mean” value (HEK-293T cells; Supplementary Fig. 24 (c), concentration 30 μM) was 96.0142. For the same compound, the “cell viability, mean” value (HEK-293T cells; Supplementary Fig. 24 (c), concentration 50 μM) was 92.8073, the “cell viability, mean” value (HEK-293T cells; Supplementary Fig. 24 (c), concentration 100 μM) was 92.5552 and the “cell viability, mean” value (HEK-293T cells; Supplementary Fig. 24 (c), concentration 200 μM) was 88.5457. For the same compound, the IC50 (HEK-293T cells; Supplementary Fig. 24 (c), read-out: IC50) was > 200 µM, the IC50 (HEK-293T cells; incubated 2 h, then blank medium 48 h, MTT, read-out: IC50 HEK-293T) was > 200 µM and the IC50 (HEK-293T cells; incubated 48 h, MTT, read-out: IC50 HEK-293T) was 48.6 ± 4.24 µM. The IC50 (HeLa cells; HeLa, 2+48 h, individual samples, read-out: IC50-2+48h) was 14.2 µM and 15.9 µM and 13.5 µM, the IC50 (HeLa cells; HeLa, 2+48 h, mean of 3 samples, read-out: IC50-2+48h) was 14.6 µM and the IC50 (HeLa cells; HeLa, 48 h, individual samples, read-out: IC50-48h) was 5.97 µM and 7.11 µM and 7.21 µM. For the same compound, the “cell viability, mean” value (HeLa cells; Supplementary Fig. 23 (a), concentration 1 μM) was 92.8903, the “cell viability, mean” value (HeLa cells; Supplementary Fig. 23 (a), concentration 2 μM) was 79.6162 and the “cell viability, mean” value (HeLa cells; Supplementary Fig. 23 (a), concentration 5 μM) was 58.6671. The “cell viability, mean” value (HeLa cells; Supplementary Fig. 23 (a), concentration 10 μM) was 35.0547, the “cell viability, mean” value (HeLa cells; Supplementary Fig. 23 (a), concentration 20 μM) was 22.3775 and the “cell viability, mean” value (HeLa cells; Supplementary Fig. 23 (a), concentration 30 μM) was 18.41. For the same compound, the “cell viability, mean” value (HeLa cells; Supplementary Fig. 23 (a), concentration 50 μM) was 13.1166, the “cell viability, mean” value (HeLa cells; Supplementary Fig. 23 (a), concentration 100 μM) was 9.42 and the “cell viability, mean” value (HeLa cells; Supplementary Fig. 23 (a), concentration 200 μM) was 5.73. The IC50 (HeLa cells; Supplementary Fig. 23 (a), read-out: IC50) was 6.76 µM, the “cell viability, mean” value (HeLa cells; Supplementary Fig. 24 (a), concentration 1 μM) was 94.9375 and the “cell viability, mean” value (HeLa cells; Supplementary Fig. 24 (a), concentration 2 μM) was 87.7526. The “cell viability, mean” value (HeLa cells; Supplementary Fig. 24 (a), concentration 5 μM) was 73.6215, the “cell viability, mean” value (HeLa cells; Supplementary Fig. 24 (a), concentration 10 μM) was 60.3727 and the “cell viability, mean” value (HeLa cells; Supplementary Fig. 24 (a), concentration 20 μM) was 43.1523. The “cell viability, mean” value (HeLa cells; Supplementary Fig. 24 (a), concentration 30 μM) was 31.9252, the “cell viability, mean” value (HeLa cells; Supplementary Fig. 24 (a), concentration 50 μM) was 21.7758 and the “cell viability, mean” value (HeLa cells; Supplementary Fig. 24 (a), concentration 100 μM) was 11.35. For the same compound, the “cell viability, mean” value (HeLa cells; Supplementary Fig. 24 (a), concentration 200 μM) was 7.117, the IC50 (HeLa cells; incubated 2 h, then blank medium 48 h, MTT, read-out: IC50 HeLa) was 14.6 ± 1.24 µM and the IC50 (HeLa cells; incubated 48 h, MTT, read-out: IC50 HeLa) was 6.76 ± 0.68 µM. For the same compound, the IC50 (HepG2 cells; HepG-2, 2+48 h, individual samples, read-out: IC50-2+48h) was 20.2 µM and 17.1 µM (2×), the IC50 (HepG2 cells; HepG-2, 2+48 h, mean of 3 samples, read-out: IC50-2+48h) was 18.1 µM and the IC50 (HepG2 cells; HepG-2, 48 h, individual samples, read-out: IC50-48h) was 9.3 µM and 10.5 µM and 11 µM. The “cell viability, mean” value (HepG2 cells; Supplementary Fig. 23 (b), concentration 1 μM) was 92.0846, the “cell viability, mean” value (HepG2 cells; Supplementary Fig. 23 (b), concentration 2 μM) was 82.2394 and the “cell viability, mean” value (HepG2 cells; Supplementary Fig. 23 (b), concentration 5 μM) was 69.0701. For the same compound, the “cell viability, mean” value (HepG2 cells; Supplementary Fig. 23 (b), concentration 10 μM) was 51.1783, the “cell viability, mean” value (HepG2 cells; Supplementary Fig. 23 (b), concentration 20 μM) was 33.5308 and the “cell viability, mean” value (HepG2 cells; Supplementary Fig. 23 (b), concentration 30 μM) was 23.4253. The “cell viability, mean” value (HepG2 cells; Supplementary Fig. 23 (b), concentration 50 μM) was 15.7997, the “cell viability, mean” value (HepG2 cells; Supplementary Fig. 23 (b), concentration 100 μM) was 10.0234 and the “cell viability, mean” value (HepG2 cells; Supplementary Fig. 23 (b), concentration 200 μM) was 7.08. The IC50 (HepG2 cells; Supplementary Fig. 23 (b), read-out: IC50) was 10.3 µM, the “cell viability, mean” value (HepG2 cells; Supplementary Fig. 24 (b), concentration 1 μM) was 95.0066 and the “cell viability, mean” value (HepG2 cells; Supplementary Fig. 24 (b), concentration 2 μM) was 86.4416. The “cell viability, mean” value (HepG2 cells; Supplementary Fig. 24 (b), concentration 5 μM) was 75.7976, the “cell viability, mean” value (HepG2 cells; Supplementary Fig. 24 (b), concentration 10 μM) was 64.0113 and the “cell viability, mean” value (HepG2 cells; Supplementary Fig. 24 (b), concentration 20 μM) was 47.6001. The “cell viability, mean” value (HepG2 cells; Supplementary Fig. 24 (b), concentration 30 μM) was 36.5665, the “cell viability, mean” value (HepG2 cells; Supplementary Fig. 24 (b), concentration 50 μM) was 27.7515 and the “cell viability, mean” value (HepG2 cells; Supplementary Fig. 24 (b), concentration 100 μM) was 19.0319. The “cell viability, mean” value (HepG2 cells; Supplementary Fig. 24 (b), concentration 200 μM) was 12.1606, the IC50 (HepG2 cells; Supplementary Fig. 24 (b), read-out: IC50) was 18.1 µM and the IC50 (HepG2 cells; incubated 2 h, then blank medium 48 h, MTT, read-out: IC50 HepG2) was 18.1 ± 1.78 µM. The IC50 (HepG2 cells; incubated 48 h, MTT, read-out: IC50 HepG2) was 10.3 ± 0.87 µM, the “Body weight of mice (Supplementary Fig. 34)” value (shortened to “Body weight of mice”) ([1]; time 0 d) was 18.59 and 19.8 and 19.81 and the “Body weight of mice” value ([1]; time 3 d) was 18.83 and 19.54 and 20.74. The “Body weight of mice” value ([1]; time 6 d) was 17.51 and 20.1 and 20.66, the “Body weight of mice” value ([1]; time 9 d) was 18.1 and 20.43 and 20.94 and the “Body weight of mice” value ([1]; time 12 d) was 19.14 and 19.19 and 21.74. For the same compound, the “Body weight of mice” value ([1]; time 15 d) was 19.31 and 19.45 and 21.01.
